Experimental data taken from patent publication US20250154455A1, “BIOACTIVE AND ANTIOXIDANT SUPRAMOLECULAR POLYMER HYDROGELS FOR NEURAL CELL CULTURE” (Northwestern University, priority 2023, published 2025).

Assay: Hydrogen peroxide remaining in solutions of PA or PEDOT-S/OH
Details: hydrogen peroxide solution, after 3 days
Description: The presence of ROS was determined using CellROX Green Reagent (ThermoFisher). Briefly, CellROX was added to cells for a final concentration of 5 μM and incubated for 30 mins at 37° C. Wells were washed 3× with PBS and fluorescence intensity was read at 485/520 nm using Cyation3. For solution studies, CellROX was added to solutions of PEDOT or PA containing 10 μM H2O2 at various time points.

**Q.** With C16-A2G2E4GIKVAV [PA] as the substance, how does the peroxide still present read?
**A.** The peroxide still present was roughly 75%.
